Test results taken from patent US20050239656A1, “Pyridine compounds or salts thereof and herbicides containing the same” (priority 2002, published 2005).

Legend:
[1] = tested on: barnyardgrass; assay: Test Example 2: soil surface treatment, upland pot test; type: in vivo, Echinochloa crus-galli L.
Description: (§1) Upland field soil was put into a 1/170,000 ha pot, and seed of various plants (barnyardgrass, crabgrass, green foxtail, redroot pigweed, prickly sida, velvetleaf, rice, wheat, corn, soybean) were sown. On the 1st day after the sowing, a wettable powder or emulsifiable concentrate having the compound of the present invention formulated in accordance with a usual formulation method, was weighed so that the active ingredient would be a predetermined amount, and diluted with water in an amount of 1,500 L/ha. The herbicide thus adjusted was applied by a small size sprayer for soil surface treatment. On the 20th to 28th days after the application of the herbicide, the growth of the respective plants was visually observed, and the herbicidal effects were evaluated by the growth controlling degrees (%) ranging from 0 (equivalent to the non-treated plot) to 100 (complete kill), whereby the results shown in Table 4, were obtained.

[2] = tested on: redroot pigweed; assay: as above; type: in vivo, Amaranthus retroflexus L.
Description: as §1

[3] = tested on: prickly sida; assay: as above; type: in vivo, Sida spinosa L.
Description: as §1

[4] = tested on: soybean; assay: as above; type: in vivo, Glycine max Merr.
Description: as §1

[5] = tested on: barnyardgrass; assay: Test Example 3: paddy pot test, application under submerged conditions; type: in vivo, Echinochloa crus-galli L.; details: submerged application at 0.5 leaf stage, visually observed 14 days after application, 0 = non-treated, 100 = complete kill
Method in brief: (§2)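 Visual growth-control rating (0 = untreated, 100 = complete kill) 14 days after treatment. The formulated compound, as a diluted wettable powder or emulsifiable concentrate, went into 3–4 cm flood water at a predetermined active-ingredient dose once the weeds reached 0.5 leaf stage (wapato: primary leaf stage).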

[6] = tested on: japanese ribbon wapato; assay: as above; type: in vivo, Sagittaria pygniaea; details: submerged application at primary leaf stage, visually observed 14 days after application, 0 = non-treated, 100 = complete kill
Method in brief: as §2

[7] = tested on: corn; assay: Test Example 2: soil surface treatment, upland pot test; type: in vivo, Zea mays L.
Description: as §1

[8] = tested on: crabgrass; assay: as above; type: in vivo, Digitaria sanguinalis L.
Description: as §1

[9] = tested on: rice (var. Nihonbare); assay: Test Example 3: paddy pot test, transplanted rice; type: in vivo, Oryza sativa L.; details: applied 4th day after transplantation, visually observed 21st day after application, 0 = non-treated, 100 = complete kill
Method in brief: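 Rice (var. Nihonbare) at 2 leaf stage transplanted 3 cm deep into puddled paddy soil under 3–4 cm flooding; on day 4 after transplanting, diluted wettable powder or emulsifiable concentrate applied by pipette under submerged conditions at a set active-ingredient dose. Growth scored visually 21 days after application, 0 (untreated) to 100 (complete kill) %.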

[10] = tested on: rice; assay: Test Example 2: soil surface treatment, upland pot test; type: in vivo, Oryza sativa L.
Description: as §1

[11] = tested on: japanese bulrush; assay: Test Example 3: paddy pot test, application under submerged conditions; type: in vivo, Scirpus juncoides; details: submerged application at 0.5 leaf stage, visually observed 14 days after application, 0 = non-treated, 100 = complete kill
Method in brief: as §2

[12] = tested on: velvetleaf; assay: Test Example 2: soil surface treatment, upland pot test; type: in vivo, Abutilon theophrasti MEDIC.
Description: as §1

[13] = tested on: green foxtail; assay: as above; type: in vivo, Setaria viridis L.
Description: as §1

[14] = active ingredient 500 g/ha, observed 20th to 28th day
[15] = active ingredient 250 g/ha, observed 20th to 28th day
[16] = active ingredient 500 g/ha, observed day 21, 0 = non-treated, 100 = complete kill

| SMILES | Growth controlling degree (%) Barnyardgrass [1, 14] [%] | Growth controlling degree (%) Redroot pigweed [2, 14] [%] | Growth controlling degree (%) Prickly sida [3, 14] [%] | Growth controlling degree (%) Soyabean [4, 14] [%] | Growth controlling degree (%) Corn [7, 14] [%] | Growth controlling degree (%) Crabgrass [8, 14] [%] | Growth controlling degree (%) Rice [10, 14] [%] | Growth controlling degree (%) Velvetleaf [12, 14] [%] | Growth controlling degree (%) Green foxtail [13, 14] [%] | Growth controlling degree (%) Japanese ribbon wapato ([6]; active ingredient 500 g/ha) [%] | Growth controlling degree (%) Rice ([9]; active ingredient 500 g/ha) [%] | Growth controlling degree (%) Japanese bulrush ([11]; active ingredient 500 g/ha) [%] | Growth controlling degree (%) Barnyardgrass ([5]; active ingredient 250 g/ha) [%] | Growth controlling degree (%) Rice ([9]; active ingredient 250 g/ha) [%] | Growth controlling degree (%) Japanese bulrush ([11]; active ingredient 250 g/ha) [%] | further results |
| --- | --- | --- | --- | --- | --- | --- | --- | --- | --- | --- | --- | --- | --- | --- | --- | --- |
| Cc1ccc(CC(=O)N(C)C(c2cnccc2C(F)(F)F)C(C)C)c(F)c1 (racemic) [I-109] | 0 | 70 | 0 | 0 | 10 | 98 | 20 | 0 | 70 | – | – | – | – | – | – | Growth controlling degree (%) Barnyardgrass ([5]; active ingredient 125 g/ha): 95%; Growth controlling degree (%) Japanese ribbon wapato ([6]; active ingredient 125 g/ha): 60%; Growth controlling degree (%) Rice ([9]; active ingredient 125 g/ha): 0%; Growth controlling degree (%) Japanese bulrush ([11]; active ingredient 125 g/ha): 90% |
| CC(C)C(c1cnccc1C(F)(F)F)N(C)C(=O)Cc1c(F)ccc(F)c1F (stereo not drawn) [Compound I-17] | 100 | 50 | 90 | 20 | 20 | 98 | 30 | 80 | 100 | 90 | 35 | 90 | – | – | – | – |
| CC(C)C(c1cnccc1C(F)(F)F)N(C)C(=O)Cc1ccccc1F (stereo not drawn) [Compound I-25] | – | – | – | – | – | – | – | – | – | 100 | 30 | 98 | – | – | – | Growth controlling degree (%) Barnyardgrass [1, 15]: 98%; Growth controlling degree (%) Redroot pigweed [2, 15]: 100%; Growth controlling degree (%) Prickly sida [3, 15]: 100%; Growth controlling degree (%) Soyabean [4, 15]: 10%; Growth controlling degree (%) Corn [7, 15]: 20%; Growth controlling degree (%) Crabgrass [8, 15]: 100%; Growth controlling degree (%) Rice [10, 15]: 20%; Growth controlling degree (%) Velvetleaf [12, 15]: 95%; Growth controlling degree (%) Green foxtail [13, 15]: 100% |
| CCN(C(=O)Cc1ccc(C(F)(F)F)cc1)C(c1cnccc1C(F)(F)F)C(C)C (stereo not drawn) [Compound I-79] | 100 | 80 | 100 | 10 | 10 | 100 | 10 | 80 | 100 | – | – | – | 100 | 20 | 70 | Growth controlling degree (%) Japanese ribbon wapato ([6]; active ingredient 250 g/ha): 40% |
| CC(C)C(c1cnccc1Cl)N(C)C(=O)Cc1ccccc1Cl (stereo not drawn) [Compound I-81] | 98 | 70 | 10 | 0 | 0 | 90 | 0 | 0 | 70 | – | – | – | 98 | 10 | 95 | Growth controlling degree (%) Japanese ribbon wapato ([6]; active ingredient 250 g/ha): 0% |
| CC(C)C(c1cnccc1C(F)(F)F)N(C)C(=O)Cc1ccc(C(F)(F)F)cc1F (stereo not drawn) [Compound I-105] | 70 | 60 | 80 | 10 | 30 | 98 | 10 | 10 | 100 | – | – | – | 100 | 20 | 80 | – |
| CC(C)C(c1cnccc1C(F)(F)F)N(C)C(=O)C=Cc1cccnc1 (stereo not drawn) [Compound I-184] | 30 | 30 | 80 | 20 | 0 | 98 | 20 | 50 | 40 | – | 10 | 90 | – | – | – | Growth controlling degree (%) Barnyardgrass ([5]; active ingredient 500 g/ha): 70% |
| CC(C)C(c1cnccc1C(F)(F)F)N(C)C(=O)Cc1ccc(Cl)cc1 (stereo not drawn) [I-23] | – | – | – | – | – | – | – | – | – | 85 | 30 | 90 | – | – | – | Growth controlling degree (%) Barnyardgrass [1, 15]: 95%; Growth controlling degree (%) Redroot pigweed [2, 15]: 85%; Growth controlling degree (%) Prickly sida [3, 15]: 98%; Growth controlling degree (%) Soyabean [4, 15]: 20%; Growth controlling degree (%) Corn [7, 15]: 10%; Growth controlling degree (%) Crabgrass [8, 15]: 98%; Growth controlling degree (%) Rice [10, 15]: 0%; Growth controlling degree (%) Velvetleaf [12, 15]: 60%; Growth controlling degree (%) Green foxtail [13, 15]: 98% |
| CC(C)C(c1cnccc1C(F)(F)F)N(C)C(=O)COc1cccc(C(F)(F)F)c1 (stereo not drawn) [I-254] | – | – | – | – | – | – | – | – | – | – | – | – | 100 | 0 | 98 | Growth controlling degree (%) Barnyardgrass [1, 16]: 90%; Growth controlling degree (%) Redroot pigweed [2, 16]: 50%; Growth controlling degree (%) Prickly sida [3, 16]: 90%; Growth controlling degree (%) Soyabean [4, 16]: 10%; Growth controlling degree (%) Corn [7, 16]: 10%; Growth controlling degree (%) Crabgrass [8, 16]: 98%; Growth controlling degree (%) Rice [10, 16]: 10%; Growth controlling degree (%) Velvetleaf [12, 16]: 70%; Growth controlling degree (%) Green foxtail [13, 16]: 100% |
